In PubChem BioAssay (NCI):
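In this assay, cells in 96-well plates receive the compound at five concentrations for 48 hours. Endpoints are linearly interpolated between the surrounding concentrations. GI50 marks 50% less growth. TGI is the concentration that stops growth completely.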

What was measured:
Experiment in all cases: NCI-60 cell line screen, 48 h
CCRF-CEM leukemia = test system: CCRF-CEM leukemia
OVCAR-4 ovarian = test system: OVCAR-4 ovarian
OVCAR-8 ovarian = test system: OVCAR-8 ovarian
SK-MEL-28 melanoma = test system: SK-MEL-28 melanoma
SR leukemia = test system: SR leukemia
TK-10 renal = test system: TK-10 renal
UO-31 renal = test system: UO-31 renal
HCT-15 colon = test system: HCT-15 colon
MOLT-4 leukemia = test system: MOLT-4 leukemia
OVCAR-5 ovarian = test system: OVCAR-5 ovarian

Structure (SMILES) | TGI (CCRF-CEM leukemia) [µM] | TGI (OVCAR-4 ovarian) [µM] | TGI (OVCAR-8 ovarian) [µM] | TGI (SK-MEL-28 melanoma) [µM] | TGI (SR leukemia) [µM] | TGI (TK-10 renal) [µM] | TGI (UO-31 renal) [µM] | TGI (HCT-15 colon) [µM] | TGI (MOLT-4 leukemia) [µM] | TGI (OVCAR-5 ovarian) [µM] | GI50 (CCRF-CEM leukemia) [µM] | GI50 (HCT-15 colon) [µM] | GI50 (MOLT-4 leukemia) [µM] | GI50 (OVCAR-4 ovarian) [µM] | GI50 (OVCAR-5 ovarian) [µM] | GI50 (OVCAR-8 ovarian) [µM] | GI50 (SK-MEL-28 melanoma) [µM] | GI50 (TK-10 renal) [µM] | GI50 (UO-31 renal) [µM] | GI50 (SR leukemia) [µM]
COc1nc2c(nc(N)n2C2OC(CO)C(O)C(O)C2O)c(=O)n1C (stereo not drawn) | > 100 | > 100 | > 100 | > 100 | > 100 | > 100 | > 100 | – | – | – | – | – | – | – | – | – | – | – | – | –
CC(C)(C)c1ccccc1NS(=O)(=O)c1ccccc1 | > 100 | > 100 | > 100 | > 100 | – | > 100 | > 100 | > 100 | > 100 | > 100 | – | – | – | – | – | – | – | – | – | –
COc1cc(/C=C/C(=O)c2ccc(Nc3nc(Nc4ccc(F)cc4)nc(Nc4ccc(F)cc4)n3)cc2)cc(OC)c1OC | > 100 | > 100 | > 100 | > 100 | – | > 100 | > 100 | > 100 | > 100 | > 100 | 2.35 | 5.53 | 1.93 | > 100 | 20.5 | 1.94 | 26.7 | 35.8 | 3.75 | –
Cc1ccc(Cl)cc1Nc1nc(C(F)(F)F)ccc1C(=O)Oc1ccc(Cl)cc1 | 24.4 | 44.3 | 29 | > 100 | – | 18.6 | 41.8 | 30.8 | 24.3 | 27.5 | 7.68 | 10.9 | 7.99 | 11.1 | 10.5 | 7.62 | 21.9 | 5.57 | 16 | –
CCOc1ccc(NC(=O)C2=C(C)NC(C)=C(C(=O)Nc3ccc(OCC)cc3)C2c2ccc([N+](=O)[O-])cc2)cc1 | 90.8 | > 100 | > 100 | > 100 | – | > 100 | > 100 | – | 66.9 | 86.9 | – | – | – | – | – | – | – | – | – | –
O=C(/C=N/O)c1c(-c2ccccc2)[nH]c(-c2ccccc2)c1-c1ccccc1 | > 100 | 42.9 | – | 39 | – | 40.8 | 36.3 | 45.8 | 31.1 | 21.7 | – | – | – | – | – | – | – | – | – | –
O=C1C(c2ccccc2)=C(c2ccccc2)C(c2ccccc2)/C1=C1\C(=O)C(c2ccccc2)=C(c2ccccc2)C1c1ccccc1 (stereo not drawn) | – | > 100 | > 100 | > 100 | > 100 | > 100 | > 100 | > 100 | > 100 | > 100 | – | – | – | – | – | – | – | – | – | –
CC(C)(C)c1cc(C(O)(C(F)(F)F)C(F)(F)F)c2c(c1)C(C(F)(F)F)(C(F)(F)F)OC(c1ccccc1)(C(C)(C)C)N2 (stereo not drawn) | – | 46.3 | 26.2 | 22.1 | 6.69 | 14.2 | 15.2 | 13.7 | 4.91 | 50.9 | – | – | – | – | – | – | – | – | – | –
O=C(/C=C/c1ccccc1F)C(c1ccccc1)c1ccccc1 | 6.32 | – | – | 6.84 | 41.9 | 14.6 | 25.2 | 23.8 | 6.6 | – | – | – | – | – | – | – | – | – | – | –
O=C(NC(=S)NS(=O)(=O)c1ccc(N2N=C3c4ccccc4CC3C2c2cccs2)cc1)c1ccccc1 (stereo not drawn) | > 100 | > 100 | > 100 | > 100 | – | – | > 100 | > 100 | 69.9 | 71.7 | 27.9 | 30.2 | 26.2 | 87.6 | 18.7 | 20.3 | 84 | – | 41.1 | –
CC(=O)O[C@H]1CC[C@@]2(C)C(=CC[C@@H]3C2CC[C@]2(C)Nc4oncc4CC32)C1 (stereo partly drawn) | 23 | 34.4 | > 100 | > 100 | – | > 100 | 70.7 | > 100 | 28.9 | > 100 | – | – | – | – | – | – | – | – | – | –
O=C(OCCOCCOC(=O)c1c[nH]cc1-c1ccccc1)c1c[nH]cc1-c1ccccc1 | > 100 | 49.7 | 84.7 | – | 55.6 | 80.1 | 31.4 | 38.5 | 49.1 | 62.2 | – | – | – | – | – | – | – | – | – | –
CN(C)/[N+]([O-])=N/Oc1cc(Nc2ccc(C(=O)O)cc2)c([N+](=O)[O-])cc1[N+](=O)[O-] | – | – | 52.1 | 57.5 | > 100 | 72.7 | 67.3 | 36.4 | > 100 | > 100 | – | 19.6 | 53.3 | – | 38.5 | 22.1 | 30.7 | 18.9 | 25.6 | 51.3
CCN1C(=O)N(c2c(F)c(OC)cc(OC)c2F)Cc2cnc3[nH]c(CN4CCOCC4)cc3c21 | > 100 | > 100 | > 100 | > 100 | 9.95 | – | > 100 | > 100 | 59.9 | > 100 | 2.13 | 0.947 | 2.56 | 1.69 | 9.23 | 3.98 | 8.06 | – | 0.878 | 1.62
Cc1ccc(S(=O)(=O)N2CCCCC2CCO)cc1 (stereo not drawn) | > 100 | > 100 | > 100 | – | > 100 | > 100 | > 100 | > 100 | > 100 | > 100 | – | – | – | – | – | – | – | – | – | –
CC1=C(C)C(=O)C(C(C)C2=C(C)C(=O)C(C)=C(C)C2=O)=C(C)C1=O | 50.7 | – | > 100 | – | 31.7 | > 100 | 85.5 | > 100 | 27.6 | > 100 | 20.1 | 15.2 | 8.88 | – | 47 | 33.3 | – | 90.6 | 27.6 | 7.35
C[Si](C)(C)/C(Br)=C\CCN1C(=O)CCC1O (stereo not drawn) | > 100 | > 100 | > 100 | > 100 | – | > 100 | > 100 | > 100 | > 100 | > 100 | – | – | – | – | – | – | – | – | – | –
Cc1cc2c(=O)cc(-c3ccc(Cl)cc3)oc2c(C(=O)O)c1C | > 100 | > 100 | > 100 | > 100 | – | > 100 | > 100 | > 100 | > 100 | > 100 | – | – | – | – | – | – | – | – | – | –
CC(=O)Nc1ccc(C(=O)N[C@@H]2C(=O)N3[C@@H]2SC(C)(C)[C@@H]3C(=O)O)cn1 | > 100 | > 100 | > 100 | > 100 | – | > 100 | > 100 | > 100 | > 100 | > 100 | – | – | – | – | – | – | – | – | – | –
